In US20230219978A1, “COMPOUND HAVING MACROCYCLIC STRUCTURE AND USE THEREOF” (SCINNOHUB PHARMACEUTICAL CO., LTD, priority 2020, published 2023):
pIC50: −log10 of the molar value.

Key:
Format in all cases: biochemical
BTK = molecular target: T1, BTK (Homo sapiens, UniProt Q06187); experiment: In vitro kinase activity assay (mobility shift assay), BTK; settings: ATP 71 μM, reaction time 30 min
T1 construct: purchased Carna 08-180
Outline: (§1)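 IC50 values come from log-concentration fits of percent inhibition, with compound tested from 1000 nM down in 3-fold steps. Kinase activity was followed as substrate conversion after a 30-240 min room-temperature reaction initiated with ATP.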

RET wt = molecular target: T2, RET wt (Homo sapiens, UniProt P07949); experiment: In vitro kinase activity assay (mobility shift assay), RET wild type; settings: ATP 16 μM, reaction time 60 min
T2 construct: purchased Carna 08-159
Outline: as §1

RET G810R = molecular target: T3, RET G810R (Homo sapiens, UniProt P07949, G810R); experiment: In vitro kinase activity assay (mobility shift assay), RET G810R; settings: ATP 201 μM, reaction time 4 h
T3 construct: purchased Proqinase 1724-0000-1
Outline: as §1

TRKa = molecular target: T4, TRKa (Homo sapiens, UniProt P04629); experiment: In vitro kinase activity assay (mobility shift assay), TRKa; settings: ATP 47.8 μM, reaction time 30 min
T4 construct: purchased Carna 08-186
Outline: as §1

SRC = molecular target: T5, SRC (Homo sapiens, UniProt P12931); experiment: In vitro kinase activity assay (mobility shift assay), SRC; settings: ATP 19 μM, reaction time 30 min
T5 construct: purchased Carna 08-173
Procedure: (§2) The IC50 (half inhibitory concentration) values of the compounds were used as an indicator to evaluate the inhibitory effect of the compound on RET wild-type, RET mutant, TRKa, SRC, BTK and/or mutated BTK kinase.
(§3) Using the method of Mobility shift assay, the compounds were tested for inhibitory activity against the following kinases: RET wild type, RET mutant, TRKa, SRC, BTK and/or mutated BTK. The initial concentration of the test compound was 1000 nM, 3-fold dilution, 10 concentrations, detected in a well for each concentration.
(§4) 20 mM hydroxyethylpiperazineethanesulfonic acid (Hepes) (pH 7.5) buffer, 10 mM MgCl2, 1 mM ethylene glycol bis(aminoethyl ether)tetraacetic acid (EGTA), 0.02% polyoxyethylene lauryl ether (Brij35), 0.02 mg/ml […] (BSA), 0.1 mM Na3VO4, 2 mM dithiothreitol (DTT), 1% DMSO.
(§5) The test compounds were dissolved in 100% dimethyl sulfoxide (DMSO) system, and prepared as 10 mM for use, and stored in a nitrogen cabinet away from light.
(§6) • (1) Preparing 1× kinase reaction buffer. • (2) Preparation of compound concentration gradient: the initial concentration of the compounds was 1000 nM, which was diluted as 100-fold final concentration of solution in 100% dimethyl sulfoxide (DMSO) in a 384-well plate. The compound was accurately 3-fold diluted with the kinase buffer solution, 10 concentrations in total, and the final concentration was 0.0508 nM. The 100-fold final concentration of solution in 100% dimethyl sulfoxide (DMSO) was obtained by dilution in 384 source plate. The liquid separator Echo 550 was used to transfer 250 nl of 100-fold final concentration of compound to the target 384 well plate. 250 nl of DMSO was added to the positive and negative control wells. • (3) 2.5-fold final concentration of kinase solution was prepared by the 1× kinase buffer. • (4) 10 4, of 2.5-fold final concentration of kinase solution was added to the compound well and the positive control well, respectively; 10 4, of 1× kinase buffer was added to the negative control well. • (5) After centrifuging at 1000 rpm for 30 second, the reaction plate was shaken and mixed, followed by incubation at room temperature for 10 min. • (6) a mixed solution of 25/15-fold final concentration of adenosine triphosphate (ATP) and kinase substrate was prepared by 1× kinase buffer. • (7) The mixed solution (15 μL) of 25/15-fold final concentration of adenosine triphosphate (ATP) and substrate was added to initiate the reaction. • (8) 384-well plate was centrifuged at 1000 rpm for 30 second, shaken and mixed well, and then incubated at room temperature for 30-240 min. • (9) After stopping the kinase reaction, the plate was centrifugated at 1000 rpm for 30 second, shaken and mixed well. • (10)The conversion rate was read with Caliper EZ Reader.
(§7) wherein Conversion%_sample is the conversion rate reading of the sample; Conversion%_min: the mean value of negative control wells, representing the conversion rate reading of wells without enzymes; Conversion%_max: the mean value of positive control wells, representing the conversion rate reading of wells without compound inhibition.
(§8) The log value of concentration was taken as the X axis, and the percentage inhibition rate was taken as the Y axis. Graphpad 6.0 analysis software was used to fit the dose-response curve, so as to obtain the IC50 value of each compound on the enzyme activity

RET V804M = molecular target: T6, RET V804M (Homo sapiens, UniProt P07949, V804M); experiment: In vitro kinase activity assay (mobility shift assay), RET V804M; settings: ATP 5.4 μM, reaction time 60 min
T6 construct: purchased signalchem R02-12GG
Outline: as §1

BTK C481S = molecular target: T7, BTK C481S (Homo sapiens, UniProt Q06187, C481S); experiment: In vitro kinase activity assay (mobility shift assay), BTK C481S; settings: ATP 90 μM, reaction time 30 min
T7 construct: purchased Carna 08-547
Procedure: as §2, §3, §4, §5, §6, §7, §8

T4 sequence (P04629 33-796): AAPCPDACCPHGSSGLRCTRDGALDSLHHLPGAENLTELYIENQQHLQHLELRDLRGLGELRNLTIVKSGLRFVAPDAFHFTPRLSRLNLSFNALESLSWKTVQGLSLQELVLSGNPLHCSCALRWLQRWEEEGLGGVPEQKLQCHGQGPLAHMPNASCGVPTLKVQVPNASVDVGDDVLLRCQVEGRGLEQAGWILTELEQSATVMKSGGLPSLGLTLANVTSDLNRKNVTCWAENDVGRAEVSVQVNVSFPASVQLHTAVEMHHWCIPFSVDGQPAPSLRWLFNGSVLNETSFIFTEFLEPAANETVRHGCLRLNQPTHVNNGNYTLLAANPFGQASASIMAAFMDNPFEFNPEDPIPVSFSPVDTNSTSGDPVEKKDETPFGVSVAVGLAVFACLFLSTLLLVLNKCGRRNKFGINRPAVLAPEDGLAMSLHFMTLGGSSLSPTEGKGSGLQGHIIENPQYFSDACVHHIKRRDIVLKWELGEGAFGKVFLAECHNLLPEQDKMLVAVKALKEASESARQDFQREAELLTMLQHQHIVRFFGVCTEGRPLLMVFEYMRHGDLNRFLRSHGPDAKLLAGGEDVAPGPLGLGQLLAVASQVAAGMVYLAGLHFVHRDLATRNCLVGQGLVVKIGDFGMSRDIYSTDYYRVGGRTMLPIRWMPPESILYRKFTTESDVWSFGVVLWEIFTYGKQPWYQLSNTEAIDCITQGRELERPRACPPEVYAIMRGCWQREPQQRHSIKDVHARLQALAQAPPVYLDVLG
T6 sequence (P07949 29-1114 V804M): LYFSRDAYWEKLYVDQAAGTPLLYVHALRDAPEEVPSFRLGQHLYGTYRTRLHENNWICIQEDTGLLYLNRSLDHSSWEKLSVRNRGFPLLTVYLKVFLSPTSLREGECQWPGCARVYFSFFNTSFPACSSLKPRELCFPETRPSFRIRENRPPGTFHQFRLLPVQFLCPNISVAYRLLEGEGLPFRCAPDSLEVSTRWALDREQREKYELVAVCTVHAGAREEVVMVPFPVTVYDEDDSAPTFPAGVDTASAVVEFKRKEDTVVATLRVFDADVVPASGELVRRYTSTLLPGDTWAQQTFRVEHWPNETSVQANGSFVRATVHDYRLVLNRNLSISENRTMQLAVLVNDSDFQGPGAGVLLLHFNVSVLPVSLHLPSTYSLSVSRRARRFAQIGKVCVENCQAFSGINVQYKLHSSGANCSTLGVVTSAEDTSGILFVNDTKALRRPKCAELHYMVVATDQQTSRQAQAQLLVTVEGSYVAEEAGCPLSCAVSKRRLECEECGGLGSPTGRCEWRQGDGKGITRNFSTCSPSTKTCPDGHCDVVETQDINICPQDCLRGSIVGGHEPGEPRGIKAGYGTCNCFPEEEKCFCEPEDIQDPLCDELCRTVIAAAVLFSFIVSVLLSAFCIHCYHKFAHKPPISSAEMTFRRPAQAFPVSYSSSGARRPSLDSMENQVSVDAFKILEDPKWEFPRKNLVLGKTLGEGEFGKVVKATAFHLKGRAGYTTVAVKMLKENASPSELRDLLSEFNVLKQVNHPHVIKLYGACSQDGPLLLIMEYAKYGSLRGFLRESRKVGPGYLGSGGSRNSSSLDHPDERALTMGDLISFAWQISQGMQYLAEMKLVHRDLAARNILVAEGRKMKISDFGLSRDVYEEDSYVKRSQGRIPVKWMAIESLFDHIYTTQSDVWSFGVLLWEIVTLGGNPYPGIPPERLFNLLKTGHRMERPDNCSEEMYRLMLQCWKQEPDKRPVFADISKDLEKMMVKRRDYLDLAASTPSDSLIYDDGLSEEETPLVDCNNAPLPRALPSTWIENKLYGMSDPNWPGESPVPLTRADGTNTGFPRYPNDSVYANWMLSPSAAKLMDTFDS
T7 sequence (Q06187 whole entry C481S): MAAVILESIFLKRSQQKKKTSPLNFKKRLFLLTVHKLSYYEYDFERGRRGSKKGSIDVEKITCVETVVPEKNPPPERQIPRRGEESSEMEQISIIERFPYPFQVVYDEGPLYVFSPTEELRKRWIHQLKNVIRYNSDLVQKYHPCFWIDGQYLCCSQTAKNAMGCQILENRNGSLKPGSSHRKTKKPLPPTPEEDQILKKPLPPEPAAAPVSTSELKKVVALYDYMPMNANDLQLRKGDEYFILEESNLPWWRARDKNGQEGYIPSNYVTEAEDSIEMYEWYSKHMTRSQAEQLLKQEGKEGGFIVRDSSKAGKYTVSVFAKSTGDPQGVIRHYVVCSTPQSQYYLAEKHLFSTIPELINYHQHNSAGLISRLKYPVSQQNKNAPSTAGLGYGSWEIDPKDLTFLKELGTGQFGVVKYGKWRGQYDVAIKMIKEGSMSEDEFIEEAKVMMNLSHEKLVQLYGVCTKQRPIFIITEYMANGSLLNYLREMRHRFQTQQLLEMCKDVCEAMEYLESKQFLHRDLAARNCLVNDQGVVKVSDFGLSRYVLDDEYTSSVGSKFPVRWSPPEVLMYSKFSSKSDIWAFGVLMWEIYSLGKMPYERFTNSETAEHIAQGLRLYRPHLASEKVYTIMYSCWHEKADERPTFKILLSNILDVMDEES
T2 sequence (P07949 29-1114): as the sequence (P07949 29-1114 V804M) above, with M776V counted along it
T5 sequence (P12931 whole entry): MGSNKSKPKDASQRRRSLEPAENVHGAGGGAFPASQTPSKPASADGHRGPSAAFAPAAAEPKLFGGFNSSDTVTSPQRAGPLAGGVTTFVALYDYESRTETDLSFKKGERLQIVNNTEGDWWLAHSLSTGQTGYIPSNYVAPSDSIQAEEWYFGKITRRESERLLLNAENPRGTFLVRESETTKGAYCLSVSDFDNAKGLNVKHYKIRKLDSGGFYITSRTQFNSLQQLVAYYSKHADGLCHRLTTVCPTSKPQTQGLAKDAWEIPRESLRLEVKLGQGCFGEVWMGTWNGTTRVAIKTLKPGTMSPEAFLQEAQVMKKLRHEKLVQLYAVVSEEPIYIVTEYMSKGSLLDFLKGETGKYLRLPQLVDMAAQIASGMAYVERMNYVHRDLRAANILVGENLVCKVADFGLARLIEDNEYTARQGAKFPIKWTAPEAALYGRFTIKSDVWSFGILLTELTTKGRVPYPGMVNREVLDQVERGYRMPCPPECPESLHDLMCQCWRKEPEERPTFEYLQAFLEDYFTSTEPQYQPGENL
T1 sequence (Q06187 whole entry): as the sequence (Q06187 whole entry C481S) above, with S481C counted along it
T3 sequence (P07949 29-1114 G810R): as the sequence (P07949 29-1114 V804M) above, with M776V, G782R counted along it

Row | SMILES | pIC50 (BTK) | pIC50 (RET wt) | pIC50 (RET G810R) | pIC50 (TRKa) | pIC50 (SRC) | pIC50 (RET V804M) | pIC50 (BTK C481S)
1 | C[C@H]1CNC(=O)c2cnn3cc(-c4ccccc4)c(nc23)NCc2cc(F)cnc2O1 [Example 1, (S, 1^3E, 1^4E)-4^5-fluoro-6-methyl-1^6-phenyl-5-oxa-2,8-diaza-1(5,3)-pyrazolo[1,5-a]pyrimidina-4(3,2)-pyridinacyclononaphan-9-one] | 7.47 | 7.96 | 7.38 | < 5.00 | 7.97 | < 5.00 | 7.50
2 | CNc1ccc(-c2c3nc4c(cnn4c2N)C(=O)NC[C@H](C)Oc2ncc(F)cc2CN3)cc1 [Example 54, (S, 1^3E, 1^4E)-1^7-amino-4^5-fluoro-6-methyl-1^6-(4-(methylamino)phenyl)-5-oxo-2,8-diaza-1(5,3)-pyrazolo[1,5-a]pyrimidin-4(3,2)-pyridinacyclononaphan-9-one] | 7.32 | 6.98 | < 6.00 |  | 8.68 | < 6.00 | 6.98
3 | COC(=O)Nc1ccc(-c2cn3ncc4c3nc2NCc2cc(F)cnc2O[C@@H](C)CNC4=O)cc1 [Compound 30, methyl (4-((S, 1^3E, 1^4E)-4^5-fluoro-6-methyl-9-oxo-5-oxa-2,8-diaza-1(5,3)-pyrazolo[1,5-a]pyrimidin-4(3,2)-pyridinacyclononaphan-1^6-yl)phenyl) carbamate] | 5.29 | 8.29 | 7.82 | < 5.00 | 5.51 | 7.12 | 
4 | CC(=O)Nc1ccc(-c2cn3ncc4c3nc2NCc2cc(F)cnc2O[C@@H](C)CNC4=O)cc1 [Compound 18] | < 5.00 | < 5.00 | < 5.00 |  | < 5.00 | < 5.00 | < 5.00
5 | COC(=O)Nc1ccc(-c2cn3ncc4c3nc2NCc2cc(F)cnc2O[C@@H](C)CNC4=O)c(Cl)c1 [Compound 27] | 7.81 | 9.20 | 7.76 |  | 7.42 | 8.49 | 7.77
6 | C[C@H]1CNC(=O)c2cnn3c(N)c(-c4ccccc4)c(nc23)NCc2cc(F)cnc2O1 [Compound 28, (S, 1^3E, 1^4E)-1^7-amino-4^5-fluoro-6-methyl-1^6-phenyl-5-oxa-2,8-diaza-1(5,3)-pyrazolino[1,5-a]pyrimidin-4(3,2)-pyridinacyclononaphan-9-one] | 8.95 | 9.44 | 7.92 |  | 9.34 | 8.04 | 9.02
7 | Cc1ccc(-c2c3nc4c(cnn4c2N)C(=O)NC[C@H](C)Oc2ncc(F)cc2CN3)cc1 [Example 56] | 8.82 | 8.92 | 7.30 |  | 9.89 |  | 9.02
8 | C[C@H]1CNC(=O)c2cnn3cc(-c4ccc(Oc5ccccc5)cc4)c(nc23)NCc2cc(F)cnc2O1 [Compound 10, (S, 1^3E, 1^4E)-1^6-(4-phenoxyphenyl)-4^5-fluoro-6-methyl-5-oxa-2,8-diaza-1(5,3)-pyrazolo[1,5-a]pyrimidina-4(3,2)-pyridinacyclononaphan-9-one] | < 5.00 | 6.84 | < 5.00 | < 5.00 | < 5.00 | < 5.00 | < 5.00
9 | C[C@H]1CNC(=O)c2cnn3cc(-c4ccccc4Cl)c(nc23)NCc2cc(F)cnc2O1 [Compound 4, (S, 1^3E, 1^4E)-1^6-(2-chlorophenyl)-4^5-fluoro-6-methyl-5-oxa-2,8-diaza-1(5,3)-pyrazolo[1,5-a]pyrimidina-4(3,2)-pyridinacyclononaphan-9-one] | 8.47 | 8.66 | 7.68 | 6.53 | 10.02 | 6.79 | 8.01
10 | CNC(=O)c1ccc(-c2cn3ncc4c3nc2NCc2cc(F)cnc2O[C@@H](C)CNC4=O)cc1 [Compound 19, 4-((S, 1^3E, 1^4E)-4^5-fluoro-6-methyl-9-oxo-5-oxa-2,8-diaza-1(5,3)-pyrazolo[1,5-a]pyrimidin-4(3,2)-pyridinacyclononaphan-1^6-yl)—N-methylbenz amide] | < 5.00 | 7.31 | < 5.00 |  | < 5.00 | < 5.00 | < 5.00
